Data from patent US4390528A, “Tuftsinyl-tuftsin” (Research Corporation, priority 1981, dated 1983).
Where a SMILES comes first, the peptide text is derived from it. Where no end group is shown, it is not given here.

Key:
[1] = tested on: therapeutic action of tuftsin; assay: Inhibition of the therapeutic action of tuftsin; conditions: tripeptide formed by degradation of administered tuftsin
Procedure: Thus, if large amounts of tuftsin are administered, for example, parenterally a rather complex series of reactions takes place. One is the desired therapeutically useful reaction, another is the formation of the inhibitory tripeptide and the third is the inhibitory reaction. The rate of the last two reactions is, unfortunately, so high that the administration of higher doses of the therapeutic agent is counterproductive. As more is administered, more of the inhibitory tripeptide is produced and less of the tuftsin is available to fulfill its therapeutic purpose.

[2] = tested on: blood polymorphonuclear leucocytes; conditions: especially neutrophilic leucocytes, in mammals, known for some time; cited from earlier work
L1210 cells = assay: Survival of DBA/2 mice injected intraperitoneally with L1210 cells; format: in vivo, mouse; conditions: 25 DBA/2 mice, 20 μg intraperitoneally on days -7, -4 and 0; L1210 cells i.p. on day 0; control animals all dead by day 18
Procedure: In one experiment, 25 DBA/2 mice were injected each with 20 μg of the octapeptide intraperitoneally on days -7, -4 and 0. On the last mentioned day, L1210 cells were also injected intraperitoneally in experimental animals and solvent buffer alone in 25 control mice. The animals were observed daily and deaths recorded. The control animals were all dead by day 18, whereas the treated mice survived 32 days.

[3] = tested on: L1210 mouse leukemia cells; assay: Antineoplastic activity against L1210 mouse leukemia cells
316 mouse melanoma cells = assay: Antineoplastic activity against 316 mouse melanoma cells
[4] = tested on: Cloudman S-91 mouse melanoma cells; assay: Antineoplastic activity against Cloudman S-91 mouse melanoma cells
[5] = tested on: blood polymorphonuclear leucocytes; assay: Stimulation of phagocytosis and pinocytosis; format: cell-based, mammals
From the text: It also stimulates pinocytosis to the same extent allowing the cells to obtain nourishment from the surrounding medium.

N=C(N)NCCC[C@H](NC(=O)[C@@H]1CCCN1C(=O)[C@@H](N)CCCCN)C(=O)O [lysyl-prolyl-arginine] (H-Lys-Pro-Arg-OH)
effect on the therapeutic action of tuftsin [1]: acts as an inhibitor

L-threonyl-L-lysyl-L-propyl-L-arginine [tuftsin]
stimulation of phagocytosis and destruction of bacteria by leucocytes [2]: has the ability to stimulate phagocytosis

TKPRTKPR [Tuftsinyl-tuftsin, L-Threonyl-L-Lysyl-L-Prolyl-L-Arginyl-L-Threonyl-L-Lysyl-L-Prolyl-L-Arginine]
survival of treated mice (L1210 cells): 32 days | antineoplastic activity [3]: manifests antineoplastic activity | antineoplastic activity (316 mouse melanoma cells): manifests antineoplastic activity | antineoplastic activity [4]: manifests antineoplastic activity | stimulation of phagocytosis and pinocytosis [5]: stimulator of phagocytosis and pinocytosis
